Data as given in PMC10636171 (Cell Death & Disease, 2023).

Key:
[1] = tested on: ASPC1; assay: CCK8 antiproliferative assay; type: cell-based; settings: Homo sapiens; ASPC1, CCK8, 72 h; read-out: IC50, cell proliferation
Protocol: (§1) For cytotoxicity assay, the cells grown in the logarithmic phase were seeded into 96-well plates (7 × 10^3 cells/well) for 24 h, then exposed to different concentrations (10, 5, 1, 0.1, 0.01 and 0.001 μM) of the test compounds for 72 h. After attached cells were incubated with CCK8 (Sigma, USA) for another 1–4 h. Then the absorbance at 450 nm was measured using a multifunction microplate reader (Molecular Devices, Flex Station 3), and each experiment was performed at least in triplicate.

[2] = tested on: HS746T; assay: CCK8 antiproliferative assay; type: cell-based; settings: Homo sapiens; HS746T, CCK8, 72 h; read-out: IC50, cell proliferation
Protocol: as §1

[3] = tested on: MKN45; assay: CCK8 antiproliferative assay; type: cell-based; settings: Homo sapiens, MKN-45; MKN45, CCK-8, 72 h; read-out: IC50, cell proliferation
Protocol: as §1

[4] = tested on: MHCC97H; assay: CCK8 antiproliferative assay; type: cell-based; settings: Homo sapiens, CCK-8, 72 h, read-out: IC50, cell proliferation
Protocol: as §1

[5] = tested on: MKN45 xenograft tumor; assay: MKN45 xenograft tumor model; type: in vivo, BALB/c nude mice; settings: ig
Protocol: Male BALB/c nude mice (5-week old, 18–20 g) were purchased from Beijing Vital River Laboratory Animal Technology (Beijing Vital River LaboratoryAnimal Technology Co., Ltd., Beijing,China) and allowed to acclimate for 1 week, maintained at constant room temperature and fed a standard rodent chow and water. 1 × 10^7 cells/mL cancer cells grown in logarithmic phase were harvested and resuspended in FBS-free 1640 medium. Then, 100 μL of the cell suspension was subcutaneously injected into the right flank of each mouse. When the tumour volume was reached about 600–800 mm^3, it was removed, minced into small pieces of equal volume (2 × 2 × 2 mm^3), and transplanted subcutaneously into the nude mice. When the tumour volume was reached about 200–400 mm^3, the xenograft tumour-bearing nude mice were randomly allocated to five groups (vehicle-treated, 1D228-2mgd-treated, 1D228-4mgd-treated […] Tepotinib-treated groups, with 6 or 8 mice (The number of mice were determined according to previous experience on xenograft tumor models) per group. Each group was dosed by intragastric administration (ig) for 7–14 days. Tumour volume and body weights were recorded every day after drug treatment. At the end of the observation period, the animals were euthanized by cervical dislocation and the tumour bulks were peeled off conformed to the Guide for the Care and Use of Laboratory Animals as published by the US National Institutes of Health (NIH Publication No. 85-23, revised 1996) and approved by the Institutional Ethics Review Board of Binzhou Medical University. There was no blinding was done during the animal experiment. No animals were excluded from the analysis.

[6] = tested on: MNK45 cell line; assay: Apoptosis assay, annexin V and PI staining, flow cytometry; type: cell-based, human; settings: control group 5%
Protocol: MHCC97H or MKN45 cells were seeded in 6-well plates (3 × 10^4 cells/well) and incubated in the presence or absence of compound 1D228, for the cell apoptosis assay, cells were harvested and incubated with 5 μL of Annexin-V/FITC (Keygen Biotech, China) in binding buffer (10 mM HEPES, 140 mM NaCl, and 2.5 mM CaCl2 at pH 7.4) at room temperature for 15 min. PI solution was then added to the medium for another 10 min-incubation. Almost 10,000 events were collected for each sample and analysed by flow cytometry (Beckman Coulter, Epics XL). For the cell cycle assay, cells were fixed in ice-cold 70% ethanol overnight. After the ethanol was removed the next day, the cells were re-suspended in ice-cold PBS, treated with RNAse A (Keygen Biotech, China) at 37 °C for 30 min, and then incubated with the DNA staining solution propidium iodide (PI, Keygen Biotech, China) at 4 °C for 30 min. Approximately 10,000 events were detected by flow cytometry (Beckman Coulter, Epics XL) at 488 nm. The data regarding the number of cells in different phases of the cell cycle were analysed using EXPO32 ADC analysis software.

**Q.** How did the IC50 [1] turn out when [2H][C@@](C)(c1cccc(-c2ncc(OCC3CCN(C)CC3)cn2)c1)n1nc(-c2cccc(C#N)c2)ccc1=O [1D228] was run?
**A.** 1330 nM

**Q.** And the IC50 [2]?
**A.** 890 nM

**Q.** And the IC50 [3]?
**A.** 1 nM

**Q.** What about the IC50 [4] of the same molecule?
**A.** 4.3 nM

**Q.** And the TGI ([5]; 2 mg/kg/d)?
**A.** 74.4%

**Q.** What about the TGI ([5]; 4 mg/kg/d) of the same molecule?
**A.** 90.7%

**Q.** What about the TGI ([5]; 8 mg/kg/d) of the same molecule?
**A.** 94.8%

**Q.** What about the Apoptosis ([6]; annexin V / PI staining) of the same molecule?
**A.** 53–75%

**Q.** What about the “Apoptosis, times higher than in the control group” value [6] of the same molecule?
**A.** 10–15 times
